Data on ten molecules can be found in ChEMBL document CHEMBL1221382, “N,O-diacyl-4-benzoyl-N-phenylhydroxylamines as photoinduced DNA cleaving agents” (Bioorg Med Chem Lett, 2010).

What all share (assay type): nucleic-acid assay
Experiment [1] relates to Nucleic Acid. Description: Induction of DNA cleavage activity in Escherichia coli pBR322 assessed as supercoiled circular form after 10 mins by gel electrophoresis in presence of UV light. Also noted: concentration or dose not given beside the values.
Experiment [2] concerns Nucleic Acid. Briefly: Induction of DNA cleavage activity in Escherichia coli pBR322 assessed as relaxed circular form after 10 mins by gel electrophoresis in presence of UV light. Also on record: concentration or dose not given beside the values.
For experiment [3], the system named is Nucleic Acid. Briefly: Ratio of relaxed circular form of Escherichia coli pBR322 to supercoiled circular form of Escherichia coli pBR322 in presence of bubbling with argon gas.
Experiment [4] has as its system Nucleic Acid. Description: Ratio of relaxed circular form of Escherichia coli pBR322 to supercoiled circular form of Escherichia coli pBR322 in presence of 0.1 M NaN3 solution.
In experiment [5] the test system is Nucleic Acid. Description: Induction of DNA cleavage activity in Escherichia coli pBR322 assessed as supercoiled circular form after 10 mins by gel electrophoresis in absence of UV light.
Experiment [6] deals with Nucleic Acid. Description: Induction of DNA cleavage activity in Escherichia coli pBR322 assessed as relaxed circular form after 10 mins by gel electrophoresis in absence of UV light. Also on record: scale not given: the % may be the effect or the level left.
Experiment [7] relates to Nucleic Acid. Description: Induction of DNA cleavage activity in Escherichia coli pBR322 assessed as supercoiled circular form after 10 mins by gel electrophoresis in presence of ascorbic acid.
The test system of experiment [8] is Nucleic Acid. Description: Induction of DNA cleavage activity in Escherichia coli pBR322 assessed as relaxed circular form after 10 mins by gel electrophoresis in presence of ascorbic acid. Also on record: scale not given: the % may be the effect or the level left.
The subject of experiment [9] is Nucleic Acid. Briefly: Induction of DNA cleavage activity in Escherichia coli pBR322 assessed as supercoiled circular form after 10 mins by gel electrophoresis in presence of 0.1 M NaN3 solution.
The subject of experiment [10] is Nucleic Acid. Briefly: Induction of DNA cleavage activity in Escherichia coli pBR322 assessed as relaxed circular form after 10 mins by gel electrophoresis in presence of 0.1 M NaN3 solution. Also noted: scale not given: the % may be the effect or the level left.
In experiment [11] the test system is Nucleic Acid. Briefly: Induction of DNA cleavage activity in Escherichia coli pBR322 assessed as supercoiled circular form after 10 mins by gel electrophoresis in presence of bubbling with argon gas.
Experiment [12] relates to Nucleic Acid. Description: Induction of DNA cleavage activity in Escherichia coli pBR322 assessed as relaxed circular form after 10 mins by gel electrophoresis in presence of bubbling with argon gas. Also noted: scale not given: the % may be the effect or the level left.
Experiment [13] concerns Nucleic Acid. Description: Ratio of relaxed circular form of Escherichia coli pBR322 to supercoiled circular form of Escherichia coli pBR322 in absence of UV light.
Experiment [14] deals with Nucleic Acid. Description: Ratio of relaxed circular form of Escherichia coli pBR322 to supercoiled circular form of Escherichia coli pBR322 in presence of ascorbic acid.

Regarding `O=C(ON(C(=O)c1ccccc1)c1ccc(C(=O)c2ccccc2)cc1)c1ccc(Cl)cc1`, the Activity in experiment [1] is 65%; in experiment [2], 35%.
Consider `O=C(ON(C(=O)c1ccccc1)c1ccc(C(=O)c2ccccc2)cc1)c1ccccc1`, for which the Activity was found to be 13.2% in experiment [1] and 86.8% in experiment [2].
As to `O=C(ON(C(=O)c1ccccc1)c1ccc(C(=O)c2ccccc2)cc1)c1ccc(F)cc1`, the Activity in [1] was 37.1%; in experiment [2] it was 62.9%.
For `COc1ccc(C(=O)N(OC(=O)c2ccccc2)c2ccc(C(=O)c3ccccc3)cc2)cc1OC`, in that order: 22.9% and 77.1%.
On to `COc1ccc(C(=O)ON(C(=O)c2ccccc2)c2ccc(C(=O)c3ccccc3)cc2)cc1OC`, for which the Activity in experiment [1] amounted to 11.2%; in experiment [2], 88.8%.
As to `CC(=O)N(OC(=O)c1ccccc1)c1ccc(C(=O)c2ccccc2)cc1`, the figures for the Activity in experiment [1] and in experiment [2] were 7.83% and 92.2%, respectively.
On to `O=C(ON(C(=O)c1ccc(F)cc1)c1ccc(C(=O)c2ccccc2)cc1)c1ccccc1`, for which the Activity in experiment [1] turned out to be 59.2%; in experiment [2], 40.8%.
Consider `CC(=O)ON(C(=O)c1ccccc1)c1ccc(C(=O)c2ccccc2)cc1`, for which the Ratio in [3] turned out to be 2.79; in [4], 3.18; in experiment [13] it was 0.19; in experiment [14] it was 0.31. For the same molecule, the Activity in experiment [5] worked out at 83.7%; in [6] it was 16.3%; in experiment [1], 25.6%; in experiment [2], 73.9%; in experiment [7], 76.6%; in experiment [8], 23.4%. The Activity in [9] is 24.1%; in experiment [10], 76%; in [11], 26.1%; in experiment [12], 73%.
Turning to `O=C(ON(C(=O)c1ccccc1)c1ccc(C(=O)c2ccccc2)cc1)c1ccc([N+](=O)[O-])cc1`, the Activity in [1] stood at 56.6%; in experiment [2], 43.4%.
Take `O=C(ON(C(=O)c1ccc([N+](=O)[O-])cc1)c1ccc(C(=O)c2ccccc2)cc1)c1ccccc1`: the figures for the Activity in experiment [1] and in [2] were 63.7% and 36.3%, respectively.
